Source: patent publication US12005123B2, “Conjugate of isotretinoin and peptide” (CAREGEN CO., LTD., priority 2017, dated 2024)
Like-named read-outs stand apart in the source and are kept apart here.

Assays:
[1] = cited from earlier work
[2] = Solubility test in distilled water; type: physicochemical; details: 10 mg/ml, FIG. 1
[3] = background statement; cited from earlier work

| solubility in water [2] | SMILES | blood concentration of active metabolite versus isotretinoin ([1]; 6 hours after administration) | fasting bioavailability ([1]; fasting) | time to reach the highest blood concentration ([1]; oral administration) [h] | solubility in water [3] |
| --- | --- | --- | --- | --- | --- |
| – | CC1=C(/C=C/C(C)=C/C=C/C(C)=C/C(=O)O)C(C)(C)CCC1=O [4-oxo-isotretinoin] | higher than the blood concentration of isotretinoin | – | – | – |
| hardly dissolved in water | CC1=C(/C=C/C(C)=C/C=C/C(C)=C\C(=O)O)C(C)(C)CCC1 [isotretinoin, 13-cis-retinoic acid] | – | about 20% | 2 to 4 | low |
